The test system of one experiment is free-feeding rats. Conditions: intracerebroventricular administration; cited from earlier work.
Experiment [1] relates to young women with anorexia nervosa. Conditions: cited from earlier work.
The conditions of experiment [2]: orally active; cited from earlier work.
The test system of experiment [3] is healthy, young male subjects. Conditions: 100 mg single oral dose in a solution of water, fasted state; four subjects on active.
Experimental: The test compound or placebo was administered orally in a solution of water to the subjects in a fasted state. The doses evaluated were 0.3, 1, 3, 10, 30 and 100 mg of the test compound or placebo. Each participant was studied at only one dose level.
Another experiment deals with satiated rats. Conditions: s.c.; cited from earlier work.
The next experiment deals with rats. Conditions: intracerebroventricular; cited from earlier work.

Square brackets hold non-standard residues; d marks the D form. Peptide text beside a SMILES is read from it. dTrp(2-Me) = Cc1[nH]c2ccccc2c1C[C@@H](N)C(=O)O; d2Nal = N[C@H](Cc1ccc2ccccc2c1)C(=O)O

For `C[C@H](NC(=O)[C@@H](Cc1ccc2ccccc2c1)NC(=O)[C@@H](C)N)C(=O)N[C@@H](Cc1c[nH]c2ccccc12)C(=O)N[C@H](Cc1ccccc1)C(=O)N[C@@H](CCCCN)C(N)=O` [KP-102] (H-[dA][d2Nal]AW[dF]K-NH2), in the experiment on free-feeding rats, the food intake result is “increased food intake”.

As for “recombinant growth hormone: recombinant growth hormone”, in experiment [1], the IGF-1 levels entry is listed as “normalizes IGF-1 levels”, the body weight result was “increases body weight” and the eating behavior result is recorded as “improves eating behavior”.

Turning to `CC(C)(N)C(=O)N[C@H](COCc1ccccc1)C(=O)N1CCC2(CC1)CN(S(C)(=O)=O)c1ccccc12` [MK-677], the diet-induced catabolism entry in experiment [2] is “reverses diet-induced catabolism”.

Regarding `CC(C)(N)C(=O)N[C@H](COCc1ccc(F)cc1F)C(=O)N1CCC2=NN(CC(F)(F)F)C(=O)[C@]2(Cc2ccccn2)C1.O=C(O)C(O)C(O)C(=O)O` [test compound, (L)-(+)-tartaric acid salt of 2-amino-N-(1-(R)-(2,4-difluoro-benzyloxymethyl)-2-oxo-2-(3-oxo-3a-(R)-pyridin-2-ylmethyl-2-(2,2,2-trifluoro-ethyl)-2,3,3a,4,6,7-hexahydro-pyrazolo-[4,3-c]pyridin-5-yl)-ethyl)-2-methyl-propionamide], in experiment [3], the “subjects who self-reported feeling hungry (case report forms)” value was “two of the four subjects”.

In the case of `Cc1[nH]c2ccccc2c1C[C@@H](NC(=O)[C@@H](N)Cc1cnc[nH]1)C(=O)N[C@@H](C)C(=O)N[C@@H](Cc1c[nH]c2ccccc12)C(=O)N[C@H](Cc1ccccc1)C(=O)N[C@@H](CCCCN)C(N)=O` [hexarelin] (H-H[dTrp(2-Me)]AW[dF]K-NH2), in the experiment on satiated rats, the GH release entry was “dose dependently stimulated” and the feeding behavior entry is “dose dependently stimulated”.

Turning to GHRP-6, in the experiment with rats, the eating result is “stimulated eating” and the “plasma growth hormone responses” value is given as “without affecting plasma growth hormone responses”. In addition, in the experiment with satiated rats, the GH release entry was “dose dependently stimulated” and the feeding behavior result was “dose dependently stimulated”.

These data come from patent US20020086865A1, “Use of growth hormone secretagogues for stimulating or increasing appetite” (priority 2000, published 2002).
